Assays:
[1] = system: normal guinea pigs with a normal cycle; experiment: Test 3: receptivity inhibition in guinea pigs treated over 2 cycles, mating in the second cycle; format: in vivo, guinea pig; details: for effectiveness of the single dose given separately: 0.5 mg daily s.c.; for effectiveness of the single dose given separately / effect of lower doses by themselves: alone; for effect of lower doses by themselves: <1.0 mg daily s.c.
Method: The tests were carried out on normal guinea pigs with a normal cycle over a treatment period of 2 cycles. Mating took place in the second cycle.
Doses of Onapristone: 0.1, 0.25, 0.5, 1.0 and 3.0 mg daily s.c.

[2] = system: guinea pigs; experiment: Inhibition of implantation in guinea pigs by estrogen antagonists; format: in vivo, guinea pig

Structure (SMILES) | effectiveness of the single dose given separately [1] | effect of lower doses by themselves [1] | pregnancies after treatment ([1]; onapristone alone, high doses, daily s.c.) | implantation in guinea pigs [2] | normal pregnancies ([1]; tamoxifen alone, 10.0 mg daily s.c., 2 cycles) [%] | inhibition of receptivity ([1]; tamoxifen alone, dosage range 0.1-10.0 mg/animal daily s.c.)
CN(C)c1ccc([C@H]2C[C@]3(C)[C@@H](CC[C@]3(O)CCCO)[C@@H]3CCC4=CC(=O)CCC4=C32)cc1 [onapristone, 11β-[4-(dimethylamino)phenyl]-17α-hydroxy-17β-(3-hydroxypropyl)-13α-estra-4,9-dien-3one] | only marginally effective | no effect or a marginal effect | occasional pregnancies occurred | – | – | –
C[C@]12CC[C@@H]3c4ccc(O)cc4C[C@@H](CCCCCCCCC[S+]([O-])CCCC(F)(F)C(F)(F)F)[C@H]3[C@@H]1CC[C@@H]2O (stereo partly drawn) [ICI 182780, 7α-[9-[(4,4,5,5,5-pentafluorpentyl)sulfinyl]nonyl]estra-1,3,5(10)-trien-3,17β-diol] | – | – | – | inhibit implantation | – | –
CC/C(=C(\c1ccccc1)c1ccc(OCCN(C)C)cc1)c1ccccc1 [tamoxifen, (Z)-N,N-dimethyl-2-[4-(1,2-diphenyl-1-butenyl)phenoxy]ethanamine] | only marginally effective | no effect or a marginal effect | – | inhibit implantation | 30 | no complete inhibition of receptivity could be achieved

Reference: patent publication US6362237B1, “Compounds with progesterone-antagonistic and antiestrogenic action to be used together for female contraception” (Schering Aktiengesellschaft, priority 1994, dated 2002)
